Consider one compound from US12053533B2, “Fluorescent probe for cyclooxygenase-2” (The Board of Trustees of the University of Illinois, priority 2020, dated 2024).

Series [1] in a line: Analyte selectivity (reactive species). The following applies: CoxFluor 10 μM, analytes up to 500 μM (50 equiv), 4 h. As to the method: Analyte Selectivity. Response of CoxFluor (10 μM) to a variety of reactive oxygen, nitrogen, carbonyl, metals, and sulfur species (1, 3, 5, or 50 equiv) were monitored using the plate reader assay. Total volume of the reaction mixture was maintained at 190 μL in 100 mM Tris-HCl buffer (pH 8.0) with a final DMSO concentration of 1.26% (v/v). Assays for CoxFluor or resorufin were initiated by the addition of the analytes and the reactions were incubated at room temperature for up to 4 h. Measurements were recorded at a range of time points, and the relative turn-on was determined relative to a buffer control containing 10 μM CoxFluor or resorufin. Superoxide anion was added as a solution of potassium superoxide in DMSO. Nitroxyl was generated in situ from a solution of Angeli's salt in degassed 10 mM potassium hydroxide solution. Angeli's salt was prepared according to previously reported literature (Methods Enzymol. 1999, 301, 279). NO was generated in situ from a solution of MAHMA-NONOate in degassed 10 mM potassium hydroxide. Peroxynitrite was prepared according to previously reported literature (Anal. Biochem. 2006, 354, 165). All metals were prepared from their chloride salt. Formaldehyde solutions were prepared by depolymerizing saturated aqueous solutions at 100° C. before use. […]

The nature of series [2]: Photophysical characterization. The series is classed as physicochemical. As to the method: Photophysical Characterization. Extinction coefficients and fluorescence quantum yields were acquired (n=3) and reported as the average with a relative standard deviation less than 15%. Extinction coefficients were acquired by titrating compound in 100 mM Tris-HCl (pH 8.0) within the linear range. Fluorescence quantum yields were obtained using the modified method for relative fluorescence quantum yield. Dye was titrated into the solution and the absorbance and emission were monitored (excitation at 540 nm). The absorbance was maintained below 0.1 to limit secondary absorbance events. Total emission spectra were integrated, and the relative quantum yield was calculated relative to Rhodamine B (ϕ=0.70, ethanol). The refractive index of 100 mM Tris-HCl (pH 8.0) was measured to be 1.33514.

The test system of series [3] is HEK 293T cells. As to the kind of experiment: Cell viability (trypan blue exclusion and MTT) in HEK 293T cells. The format is cell-based. As to conditions: 6 h incubation. How it is done: Trypan Blue Exclusion Cytotoxicity Assay. 6-well plates were seeded with 300,000 cells per well (2 mL of 150,000 cells/mL) and incubated at 37° C. with 5% CO2 for 48 to 72 h (˜60-80% confluent). Media was removed and replaced with either 5, 10, or 25 μM CoxFluor in fresh serum-free DMEM media (1.25% DMSO v/v final concentration). […] The trypsin was quenched with the addition of 1.8 mL DMEM media containing 10% FBS and the cells were mixed thoroughly before diluting 1:1 with trypan blue (0.4% in PBS w/v). Percent viability was measured using a Countess® II FL Automated Cell Counter (Thermo Fisher Scientific), where the parameters were optimized to identify live and dead cells. Viability was calculated by the relative to the vehicle control.
MTT Cytotoxicity Assay. […] The media was removed at various time points (3 or 6 h) and replaced with 200 μL 20:1 mixture of FBS-free DMEM and (3-(4,5-dimethylthiazol-2-yl)-2,5-diphenyl-tetrazolium bromide (MTT, 5 mg/mL stock in PBS). The cells were incubated for 4 h under the same conditions and then the medium was removed and replaced with DMSO (200 μL/well). The absorbance of each well was recorded after a 1:5 dilution in DMSO at 555 nm on a microplate reader. Viability was calculated by the absorbance relative to the vehicle control.

Series [4] relates to COX-2 activity in RAW 264.7 macrophage lysates. The series is described as follows: RAW 264.7 macrophage lysate COX-2 activity assay. The format is cell-based, mouse. The following applies: NEM 1 mM, CoxFluor readout.
Series [5] concerns COX-2 activity in RAW 264.7 macrophage cells. The series is described as follows: Flow cytometry of LPS-induced COX-2 activity in RAW 264.7 macrophages. The format is cell-based, mouse. As to conditions: CoxFluor 10 μM. From the text: Flow Cytometry of Lipopolysaccharide-induced COX-2 Expression in RAW 264.7 Macrophages. […] After staining, cells were pelleted using the aforementioned procedure and were resuspended in PBS. […] Replicate numbers correspond to biological replicates.
On the technique in general: In flow cytometry, cells or beads pass a laser one at a time.

As to `CCCCC/C=C\C/C=C\C/C=C\C/C=C\CCCC(=O)N1c2ccc(O)cc2Oc2cc(O)ccc21` [CoxFluor], the “activation by reactive oxygen/nitrogen species and other oxidants and reductants” value in series [1] is “no undesirable activation”. Moreover, the “extinction coefficient ε at 572 nm” value in series [2] (100 mM Tris-HCl pH 8.0) turned out to be 820 M⁻¹ cm⁻¹. In addition, the “fluorescence quantum yield ΦF” value in series [2] (100 mM Tris-HCl pH 8.0, relative to Rhodamine B) worked out at 0.29. In addition, in series [3], the cell viability result is on record as “suitable viability”. For the same compound, the “maximum increase in COX-2 activity in lysates” value in series [4] (19 hr LPS activation) was determined as 17.6 fold. Also, the “increase in COX-2 activity in lysates” value in series [4] (within the first 4 hr of LPS activation) came out at 2.4 fold. Also, the “increase in median fluorescence, cells activated 19 hr compared to 4 hr” value in series [5] (after BSO pre-treatment) worked out at 1.6 fold. In addition, the “increase in activity after 19 hr LPS-activation relative to 4 hr” value in series [5] (without GSH depletion) is 1.2 fold.
